Data set [1] addresses CYP2D6 (Homo sapiens (Human), UniProt P10635). Nature of the data set: CYP450 inhibition in human liver microsomes: CYP2D6. Background: Liver microsomes are a subcellular fraction often used to study metabolism.
In data set [2] the test system is PBMCs. Nature of the data set: PBMC cytotoxicity (XTT). In kind it is cell-based, human. To be noted: 7 days. Here is the method: Mononuclear cells were isolated from fresh human peripheral blood cells by Ficoll-Hypaque density gradient by centrifugation at 600 g for 30 minutes. Banded peripheral blood mononuclear cells (PBMCs) were aspirated from the resulting interface and washed with phosphate buffered saline by low speed centrifugation. Cell viability was evaluated by Trypan Blue dye exclusion. […] Plates were incubated at 37° C., 5% CO2 for 7 days prior to cytotoxicity evaluation. XTT measurement for cytotoxicity.
Background: Formazan colour is commonly taken as a measure of viable cells.

The subject of data set [3] is PBMCs. Nature of the data set: PBMC macromolecule synthesis (tritiated precursor incorporation). It is filed as cell-based, human. Particulars: for Thymidine Incorporation (PBMC) TC50: DNA synthesis; for Uridine Incorporation (PBMC) TC50: RNA synthesis; for Leucine Incorporation (PBMC) TC50: protein synthesis. Here is the method:
Cellular macromolecule synthesis was evaluated using tritiated precursor incorporation assays. PBMCs (5×10^4 cells/well) were cultured in the presence or absence of test compound for 7 days at 37 C, 5% CO2 in a 96-well microtiter plate. On day 6 of the incubation, 1 uCi of [methyl-3H]-thymidine for DNA synthesis, [5-3H]-uridine for RNA synthesis, or [3,4,5-3H]-leucine for protein synthesis was added to compound-treated cells, and the plate was further incubated for 16 hours. The cells were transferred to a glass fiber filtermat using an Inotech cell harvester. The filtermats were washed with distilled water then sealed in a bag with scintillation fluid. Incorporated radioactivity was measured using a Wallac scintillation counter.
On the technique in general: Dividing cells build labelled thymidine or BrdU into new DNA.

Data set [4] deals with HIV-1RF. Nature of the data set: Anti-HIV cytoprotection in CEM-SS cells infected with HIV-1RF (XTT). It is filed as cell-based. To be noted: six days, XTT; read-out: CEM-SS/HIV-1RF EC50 ± SD. Here is the method: To evaluate whether conjugated protease inhibitors retain the ability to protect against HIV-1 infection, CEM-SS cells infected with the RF strain of HIV-1 were treated with test compounds for six days, and then cell viability was monitored using the tetrazolium dye XTT. […] A value for Therapeutic Index (TI) was calculated as TC50/EC50.

Data set [5] can be described thus: Metabolic stability in human liver microsomes.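 On t1/2: microsomal protein 0.5 mg/mL.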 To be noted: for CLint ± SEM / t1/2: 3 μM. In a few lines: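 Substrate depletion: compounds at 3 μM final with pooled mixed-sex human liver microsomes (0.5 mg/mL) in 0.1 M phosphate pH 7.4 at 37 °C. Remaining parent quantified by LC-MS/MS.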
Data set [6] deals with HIV-1Ba-L. Nature of the data set: Anti-HIV-1 activity in monocyte-derived dendritic cells (reverse transcriptase activity). To be noted: dendritic cells. It is filed as cell-based. Here is the method: Freshly separated human PBMCs from a single donor were suspended in DPBS at 4×10^6 cells/mL and incubated in a 75 cm^2 cell culture flask for 90 minutes at 37° C., 5% CO2. Non-adherent cells were removed by washing with DPBS. Differentiation to dendritic cells was induced by 7 day incubation in RPMI 1640 medium supplemented with 10% fetal bovine serum, 2 mmol/L L-glutamine, 25 mM HEPES, 100 Units/mL penicllin, 10 μg/mL streptomycin, 50 ng/mL recombinant human granulocyte-macrophage-colony stimulating factor (GM-CSF), and 50 ng/mL recombinant human Interleukin (IL)-4 at 37° C., 5% CO2. The cells were further incubated for two days in the same cytokine cocktail supplemented with 10 ng/mL lipopolysaccharide (LPS). The monocyte-derived dendritic cells were then suspended at 10×10^6 cells/mL in complete medium (RPMI 1640 medium supplemented with 10% fetal bovine serum, 2 mmol/L L-glutamine, 25 mM HEPES, 100 Units/mL penicllin, 10 μg/mL streptomycin) and infected for 2 h at 37 C, 5% CO2 with HIV-1Ba-L at MOI=50-150 TCID50. […] Compound diluted in complete medium was added to cells. After seven days in culture, HIV-1 replication was quantified by measuring HIV-1 reverse transcriptase activity in cell-free supernatants using a standard radioactive tritiated thymidine triphosphate (TTP) polymerization incorporation assay. For each reaction, 1 μL of TTP (1 Ci/mL) was combined with 4 μL of dH2O, 2.5 μL of poly rA and oligo dT (0.5 mg/mL and 1.7 Units/mL, respectively), and 2.5 μL reaction buffer (125 μL 1 mol/L EGTA, 125 μL dH2O, 125 μL 20% Triton X-100, 50 μL 1 mol/L Tris, pH 7.4, 50 μL 1 mol/L DTT, 40 μL 1 mol/L MgCl2), then 10 μL of the resulting mixture was combined with 15 µL of virus-containing supernatant in a round-bottom microtiter plate and the plate incubated at 37° C. in a humidified incubator for 90 minutes. Following incubation, 10 μL of the reaction volume was spotted onto a DEAD filter mat, then washed 5×5 min with 5% sodium phosphate buffer, 2×1 minute in distilled water, 2×1 minute in 70% ethanol, then air dried. The filter mat was incubated with Opti-Fluor O scintillation fluid, and radioactivity quantified using a Wallac 1450 Microbeta Trilux liquid scintillation counter.

In data set [7] the test system is HIV-1BaL. Nature of the data set: HIV-1 p24 levels after infection of fresh human monocyte/macrophages. In kind it is cell-based. To be noted: seven days, p24; read-out: Monocyte/HIV-1BaL EC50. Here is the method: Mononuclear cells were isolated from fresh human peripheral blood cells by Ficoll-Hypaque density gradient by centrifugation at 600 g for 30 minutes. Banded peripheral blood mononuclear cells (PBMCs) were aspirated from the resulting interface and washed with phosphate buffered saline by low speed centrifugation. […] Cells were allowed to attach for 2 to 12 h at 37° C., then washed with Dulbecco's phosphate buffered saline (DPBS). Monocyte-macrophage monolayer formation was induced by incubation in growth medium (RPMI 1640 medium supplemented with 10% fetal bovine serum, 2 mmol/L L-glutamine, 100 Units/mL penicllin and 10 μg/mL streptomycin) for 7 days. Residual PBMCs were removed by washing the cell monolayers with DPBS. After washing, test compound diluted in growth medium was added to cells. Immediately following test compound addition, HIV-1 virus was added to the cells at multiplicity of infection (MOI)=0.05-0.10. After 7 days in culture, HIV-1 replication was quantified by ELISA measurement of cell-free HIV-1 viral capsid protein (p24) in the tissue culture supernatant of treated monocyte-macrophage monolayers. ELISA to quantify p24 was performed according to manufacturer's instructions (Perkin Elmer, Waltham, Mass.). The quantity of free HIV-1 p24 antigen in the sample was determined by comparing its absorbance at 490 nm to that of control standards.
Fresh human monocytes were infected with the BaL strain of HIV-1 in the presence of test compounds. After seven days in culture, HIV-1 replication was evaluated by measurement of HIV-1 viral capsid protein (p24) in the tissue culture supernatant (Table 7). […] A TI was calculated as described above using TC50 values derived from cell toxicity data in response to test compounds in the absence of viral infection.

Read-outs that look alike come from different tables or passages of the source.

Usually IC50 stands for the concentration that gives 50% inhibition. By microsomal CLint is commonly meant the rate of metabolic loss divided by the concentration. One may read the half-life as how long it takes for the measured level to halve. A low value points to fast loss.

Chain of CYP2D6 (P10635 whole entry): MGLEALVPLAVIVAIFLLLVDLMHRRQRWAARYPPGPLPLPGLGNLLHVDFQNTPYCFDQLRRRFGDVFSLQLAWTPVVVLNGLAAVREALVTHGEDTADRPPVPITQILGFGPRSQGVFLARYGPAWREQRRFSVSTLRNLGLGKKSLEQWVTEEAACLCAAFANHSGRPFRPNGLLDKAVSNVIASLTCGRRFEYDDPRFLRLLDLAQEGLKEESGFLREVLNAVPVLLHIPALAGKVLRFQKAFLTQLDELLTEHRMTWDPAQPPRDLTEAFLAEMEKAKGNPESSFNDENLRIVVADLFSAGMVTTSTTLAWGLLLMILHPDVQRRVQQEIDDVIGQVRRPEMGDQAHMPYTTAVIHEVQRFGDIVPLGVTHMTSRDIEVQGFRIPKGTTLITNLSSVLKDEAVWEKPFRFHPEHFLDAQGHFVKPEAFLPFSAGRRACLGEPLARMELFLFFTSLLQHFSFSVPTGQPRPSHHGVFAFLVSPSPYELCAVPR

With `COC(=O)N[C@H](C(=O)N[C@@H](Cc1ccccc1)[C@@H](O)CN(Cc1ccc(-c2ccccn2)cc1)NC(=O)[C@@H](NC(=O)OC)C(C)(C)C)C(C)(C)C` [Atazanavir, reference compound], the midpoint of inhibition in data set [1], the IC50, lay at 14900 nM. Moreover, the “XTT (PBMC) TC50” value in data set [2] came out at 109400 nM. In addition, in data set [3], the “Thymidine Incorporation (PBMC) TC50” value amounted to 81100 nM, the “Uridine Incorporation (PBMC) TC50” value was 87200 nM and the “Leucine Incorporation (PBMC) TC50” value turned out to be 94700 nM. In data set [4], the EC50 came to 15 ± 14 nM.
`COCCOCCOCCOC(=O)NC(C(=O)NC(Cc1ccccc1)C(O)CN(Cc1ccc(-c2ccccn2)cc1)NC(=O)C(NC(=O)OC)C(C)(C)C)C(C)(C)C` (stereo not shown) [mono-mPEG3-Atazanavir, {1-[N′-[2-Hydroxy-3-(2-{2-[2-(2-methoxy-ethoxy)-ethoxy]-ethoxycarbonylamino}-3,3-dimethyl-butyrylamino)-4-phenyl-butyl]-N′-(4-pyridin-2-yl-benzyl)-hydrazinocarbonyl]-2,2-dimethyl-propyl}-carbamic Acid Methyl Ester]: in data set [1], the IC50 was over 25000 nM. In data set [2], the “XTT (PBMC) TC50” value was found to be 338900 nM. For the same compound, the microsomal CLint at 3 μM in data set [5] (both, human, pooled human liver microsomes, pH 7.4, CLint ± SEM, human liver microsomes) amounted to 248 ± 31.7 µL/min/mg. The half-life at 3 μM in data set [5] (both, human, pooled human liver microsomes, pH 7.4, t1/2, human liver microsomes) turned out to be 5.58 min. In addition, in data set [5] (human liver microsomes), the “CLint ± SEM” value came out at 172 ± 1.39 μL/min/mg protein and the t1/2 was determined as 8.04 min. In data set [3], the “Thymidine Incorporation (PBMC) TC50” value was determined as 36600 nM, the “Uridine Incorporation (PBMC) TC50” value came out at 27700 nM and the “Leucine Incorporation (PBMC) TC50” value came out at 82000 nM. In addition, the EC50 in data set [4] was 3 ± 2 nM.
`COCCOCCOCCOCCOCCOCCOCCOC(=O)NC(C(=O)NC(Cc1ccccc1)C(O)CN(Cc1ccc(-c2ccccn2)cc1)NC(=O)C(NC(=O)OC)C(C)(C)C)C(C)(C)C` (stereo not shown) [mono-mPEG7-Atazanavir]: the EC50 in data set [6] (first determination, read-out: EC50 First) is 0.13 nM; in data set [6] (mean of three, read-out: Mean EC50), 4.03 nM; in data set [6] (second determination, read-out: EC50 Second), 11.7 nM; in data set [6] (third determination, read-out: EC50 Third), 0.25 nM; in data set [7] it was 137 ± 60.1 nM; in data set [4], 30 ± 20 nM. For the same compound, the IC50 in data set [1] (read-out: CYP2D6 IC50 Dextromethorphan, probe substrate dextromethorphan) is over 25000 nM. For the same compound, the “CLint ± SEM” value in data set [5] (human liver microsomes) was found to be 71.0 ± 5.63 μL/min/mg protein. The same compound had a t1/2 in data set [5] (human liver microsomes) of 19.5 min.

Values taken from patent US10806794B2, “Protease inhibitors having enhanced features” (priority 2008, dated 2020).
